From patent US8148391B2 (Cephalon, Inc., priority 2006, dated 2012)
Read-outs that look alike come from different tables or passages of the source. One block for each compound: values may come before it.

Columns and labels:
[1] = molecular target: T1, c-Met (cytoplasmic domain) (Homo sapiens, UniProt P08581); test: c-Met Kinase Assay (same methods as for ALK, with modifications); assay type: biochemical
T1 construct: 10 ng/mL c-Met (cytoplasmic domain, Invitrogen Corporation #PV3143); purchased Invitrogen Corporation PV3143
T1 sequence (P08581 956-1390 limits assumed): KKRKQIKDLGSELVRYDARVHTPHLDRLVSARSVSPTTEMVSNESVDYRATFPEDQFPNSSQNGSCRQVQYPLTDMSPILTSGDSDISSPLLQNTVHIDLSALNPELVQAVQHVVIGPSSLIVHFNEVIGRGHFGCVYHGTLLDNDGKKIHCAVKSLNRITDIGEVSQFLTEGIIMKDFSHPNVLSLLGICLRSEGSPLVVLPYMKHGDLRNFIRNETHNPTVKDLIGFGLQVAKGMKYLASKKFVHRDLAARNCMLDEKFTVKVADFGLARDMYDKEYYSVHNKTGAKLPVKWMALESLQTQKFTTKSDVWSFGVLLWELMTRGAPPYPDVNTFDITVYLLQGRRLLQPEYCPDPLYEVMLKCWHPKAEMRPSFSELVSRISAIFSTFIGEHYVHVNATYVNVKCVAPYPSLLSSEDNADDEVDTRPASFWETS
Method in brief: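 IC50 values were fitted by variable-slope sigmoidal regression of percent inhibition against log compound concentration. Phosphorylation was read with Eu-N1 PT66 antibody after a 15 min, 37 °C reaction. The reaction was initiated with 10 ng/mL c-Met cytoplasmic domain on wells coated with 10 μg/mL PLC-γ in TBS.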

[2] = molecular target: T2, baculovirus-expressed ALK (Homo sapiens, UniProt Q9UM73); test: ALK Kinase Assay (ELISA-type, time-resolved fluorescence); assay type: biochemical
T2 construct: host or cells: baculovirus expression system
T2 sequence (Q9UM73 19-1620): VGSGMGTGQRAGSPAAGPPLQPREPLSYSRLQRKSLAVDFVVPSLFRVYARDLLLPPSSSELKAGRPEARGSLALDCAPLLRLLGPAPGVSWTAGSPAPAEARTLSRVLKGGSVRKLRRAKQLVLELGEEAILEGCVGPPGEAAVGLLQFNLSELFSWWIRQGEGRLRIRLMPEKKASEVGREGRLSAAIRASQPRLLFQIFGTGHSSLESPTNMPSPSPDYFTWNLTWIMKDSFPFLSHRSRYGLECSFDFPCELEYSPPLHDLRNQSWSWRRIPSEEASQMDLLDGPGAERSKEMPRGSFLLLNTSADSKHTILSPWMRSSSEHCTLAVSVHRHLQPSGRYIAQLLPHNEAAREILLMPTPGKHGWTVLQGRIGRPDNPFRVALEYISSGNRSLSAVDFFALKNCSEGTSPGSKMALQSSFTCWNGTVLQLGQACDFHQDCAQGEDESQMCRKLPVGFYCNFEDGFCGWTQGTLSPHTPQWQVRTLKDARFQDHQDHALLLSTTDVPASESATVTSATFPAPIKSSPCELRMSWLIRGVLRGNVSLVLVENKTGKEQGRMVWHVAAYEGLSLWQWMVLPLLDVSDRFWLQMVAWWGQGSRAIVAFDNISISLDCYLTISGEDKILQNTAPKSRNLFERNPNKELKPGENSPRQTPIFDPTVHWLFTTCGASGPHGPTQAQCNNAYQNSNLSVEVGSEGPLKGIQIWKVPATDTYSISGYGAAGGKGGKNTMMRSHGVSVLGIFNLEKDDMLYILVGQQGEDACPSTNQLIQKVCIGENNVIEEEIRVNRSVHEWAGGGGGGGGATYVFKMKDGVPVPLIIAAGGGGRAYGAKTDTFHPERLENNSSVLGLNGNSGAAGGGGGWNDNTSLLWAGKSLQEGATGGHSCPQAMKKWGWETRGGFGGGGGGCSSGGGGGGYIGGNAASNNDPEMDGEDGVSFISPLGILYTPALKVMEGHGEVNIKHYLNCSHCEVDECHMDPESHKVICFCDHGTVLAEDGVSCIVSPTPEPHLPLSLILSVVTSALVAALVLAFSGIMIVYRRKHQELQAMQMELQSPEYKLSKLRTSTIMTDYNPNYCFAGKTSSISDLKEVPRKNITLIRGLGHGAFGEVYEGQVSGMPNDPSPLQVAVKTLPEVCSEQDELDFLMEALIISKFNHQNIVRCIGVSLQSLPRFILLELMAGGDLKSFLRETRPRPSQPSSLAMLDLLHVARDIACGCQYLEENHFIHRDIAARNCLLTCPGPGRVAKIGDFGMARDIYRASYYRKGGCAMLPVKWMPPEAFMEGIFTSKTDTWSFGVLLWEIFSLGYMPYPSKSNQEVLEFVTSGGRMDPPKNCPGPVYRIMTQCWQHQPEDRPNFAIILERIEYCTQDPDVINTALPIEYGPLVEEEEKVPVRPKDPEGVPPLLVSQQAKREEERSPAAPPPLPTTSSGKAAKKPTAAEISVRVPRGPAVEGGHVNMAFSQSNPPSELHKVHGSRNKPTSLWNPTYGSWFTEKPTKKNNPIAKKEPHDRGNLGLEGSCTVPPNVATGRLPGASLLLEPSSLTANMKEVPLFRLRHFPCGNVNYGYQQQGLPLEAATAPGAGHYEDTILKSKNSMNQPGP
Method in brief: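 Wells were coated with phospholipase C-γ at 10 μg/mL in Tris-buffered saline. Adding 30 ng/ml enzyme started the reaction, which ran at 37° C for 15 minutes before Eu-N1 PT66 antibody detection. Percent inhibition versus log10 concentration gave IC50 by variable-slope fit.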

[3] = 1 μM ATP (Km level), 10 ng/mL c-Met, read-out: cMet Activity (c-Met kinase inhibition, IC50 class)
[4] = 1 μM ATP (Km level), 30 ng/ml ALK, 37° C., 15 minutes, read-out: ALK Activity (ALK kinase inhibition, IC50 class)
[5] = c-Met kinase inhibition, 1 μM ATP, read-out: cMet Activity
[6] = ALK kinase inhibition, 1 μM ATP, read-out: ALK Activity
[7] = c-Met kinase inhibition, 1 μM ATP (Km level), read-out: cMet Activity
[8] = ALK kinase inhibition, 1 μM ATP (Km level), read-out: ALK Activity
[9] = 1 μM ATP (Km level), read-out: cMet Activity (c-Met Kinase Inhibition, IC50)
[10] = 1 μM ATP (Km level), read-out: ALK Activity (ALK Kinase Inhibition, IC50)

SMILES: CCN1C(=O)CCCc2c(OC)ccc(Nc3ncc(Cl)c(Nc4ccc(N5CCOCC5)cc4OC)n3)c21 [Example 125, 9-[5-Chloro-4-(2-methoxy-4-morpholin-4-yl-phenylamino)-pyrimidin-2-ylamino]-1-ethyl-6-methoxy-1,3,4,5-tetrahydro-benzo[b]azepin-2-one]
IC50 [1, 7]: > 10000 nM | IC50 [2, 8]: < 100 nM

SMILES: COCCN1CCc2ccc(Nc3ncc(Cl)c(Nc4cc(C(N)=O)n[nH]4)n3)cc2CC1 [Example 954, 5-{5-Chloro-2-[3-(2-methoxy-ethyl)-2,3,4,5-tetrahydro-1H-3-benzazepin-7-ylamino]-pyrimidin-4-ylamino}-1H-pyrazole-3-carboxylic acid amide]
IC50 [1, 9]: 100 to 1000 nM | IC50 [2, 10]: 100 to 1000 nM

SMILES: COCCN(C)C1CCc2ccc(Nc3ncc(Cl)c(N[C@H]4[C@@H](C(N)=O)[C@@H]5C=C[C@H]4C5)n3)c(OC)c2CC1 (single isomer, unassigned) [Example 701]
IC50 [1, 9]: > 10000 nM | IC50 [2, 10]: < 100 nM

SMILES: Cc1ccnc(-c2ccccc2Nc2nc(Nc3ccc4c(c3)C(C)(C)CCC(=O)N4)ncc2Cl)c1 [Example 1001, 7-{5-Chloro-4-[2-(4-methyl-pyridin-2-yl)-phenylamino]-pyrimidin-2-ylamino}-5,5-dimethyl-1,3,4,5-tetrahydro-benzo[b]azepin-2-one]
IC50 [1, 9]: > 10000 nM | IC50 [2, 10]: 100 to 1000 nM

SMILES: COCCN1CCc2cc(Nc3ncc(Cl)c(Nc4ccc(OC)cc4-n4cccn4)n3)c(OC)cc2CC1 [Example 612, 5-Chloro-N*2*-[8-methoxy-3-(2-methoxy-ethyl)-2,3,4,5-tetrahydro-1H-benzo[d]azepin-7-yl]-N*4*-(4-methoxy-2-pyrazol-1-yl-phenyl)-pyrimidine-2,4-diamine]
IC50 [1, 9]: > 10000 nM | IC50 [2, 10]: < 100 nM

SMILES: COc1cc(N2CCOCC2)ccc1Nc1nc(Nc2ccc3c(c2OC)CCC(N2CCOCC2)CC3)ncc1Cl (centres unmarked) [Example 894, 5-Chloro-N*4*-(2-methoxy-4-morpholin-4-yl-phenyl)-N*2*-(1-methoxy-7-morpholin-4-yl-6,7,8,9-tetrahydro-5H-benzocyclohepten-2-yl)-pyrimidine-2,4-diamine]
IC50 [1, 9]: > 10000 nM | IC50 [2, 10]: < 100 nM

SMILES: CNC(=O)c1cccc(Cl)c1Nc1nc(Nc2ccc3c(c2)C2CCC(C3)N2)ncc1Cl (centres unmarked) [Example 90, 2-[2-(12-Aza-tricyclo[7.2.1.0*2,7*]dodeca-2(7),3,5-trien-4-ylamino)-5-chloro-pyrimidin-4-ylamino]-3-chloro-N-methyl-benzamide]
IC50 [1, 7]: < 100 nM | IC50 [2, 8]: 100 to 1000 nM

SMILES: CN1CCNCc2cc(Nc3ncc(Cl)c(N[C@@H]4CCCC[C@H]4NS(C)(=O)=O)n3)ccc21 [Example 422, N-{(1R,2R)-2-[5-Chloro-2-(1-methyl-2,3,4,5-tetrahydro-1H-benzo[e][1,4]diazepin-7-ylamino)-pyrimidin-4-ylamino]-cyclohexyl}-methanesulfonamide]
IC50 [1, 7]: 1000 to 10000 nM | IC50 [2, 8]: < 100 nM

SMILES: COCCOC(=O)C1[C@@H]2C=C[C@@H](C2)[C@H]1Nc1nc(Nc2ccc3c(c2OC)CC[C@@H](N2CCOCC2)CC3)ncc1Cl (single isomer, unassigned) [Example 905]
IC50 [1, 9]: > 10000 nM | IC50 [2, 10]: 100 to 1000 nM

SMILES: CCN1CC2CC(C1)c1cc(Nc3ncc(Cl)c(Nc4ccccc4S(=O)(=O)NC)n3)ccc12 (centres unmarked) [Example 157, 2-[5-Chloro-2-(10-ethyl-10-aza-tricyclo[6.3.1.0*2,7*]dodeca-2,4,6-trien-4-ylamino)-pyrimidin-4-ylamino]-N-methyl-benzenesulfonamide]
IC50 [1, 7]: 1000 to 10000 nM | IC50 [2, 8]: < 100 nM

SMILES: COc1cc2c(cc1Nc1ncc(Cl)c(N[C@@H]3CCCC[C@H]3NS(C)(=O)=O)n1)CCC(NCC(F)F)CC2 (single isomer, unassigned) [Example 1058]
IC50 [1, 3]: > 10000 nM | IC50 [2, 4]: < 100 nM

Now from value to compound:

IC50 [1, 3]: 100 to 1000 nM | IC50 [2, 4]: < 100 nM
SMILES: CNC(=O)CN1CCc2ccc(Nc3ncc(Cl)c(N[C@@H]4CCCC[C@H]4NS(C)(=O)=O)n3)cc2CC1 [Example 1374, 2-{7-[5-Chloro-4-((1R,2R)-2-methanesulfonylamino-cyclohexylamino)-pyrimidin-2-ylamino]-1,2,4,5-tetrahydro-benzo[d]azepin-3-yl}-N-methyl-acetamide]

IC50 [1, 5]: < 100 nM | IC50 [2, 6]: 100 to 1000 nM
SMILES: CNC(=O)c1ccccc1Nc1nc(Nc2ccc3c(c2)-n2ccnc2CCC3)ncc1Cl [Example 1836, 2-[5-Chloro-2-(5,6-dihydro-4H-3,10b-diaza-benzo[e]azulen-9-ylamino)-pyrimidin-4-ylamino]-N-methyl-benzamide]

IC50 [1, 3]: > 10000 nM | IC50 [2, 4]: 1000 to 10000 nM
SMILES: COCCN1CCc2cc(Nc3ncc(Cl)c(Nc4cc(C(N)=O)ccc4OC)n3)c(OC)cc2CC1 [Example 1140, 3-{5-Chloro-2-[8-methoxy-3-(2-methoxy-ethyl)-2,3,4,5-tetrahydro-1H-benzo[d]azepin-7-ylamino]-pyrimidin-4-ylamino}-4-methoxy-benzamide]

IC50 [1, 5]: > 10000 nM | IC50 [2, 6]: 1000 to 10000 nM
SMILES: CC(C)[C@H](Nc1nc(Nc2ccc3c(c2)CCOC(=O)N3C)ncc1Cl)C(N)=O [Example 1764, (S)-2-[5-chloro-2-(5-methyl-6-oxo-5,6,8,9-tetrahydro-7-oxa-5-aza-benzocyclohepten-2-ylamino)-pyrimidin-4-ylamino]-3-methyl-butyramide]

IC50 [1, 5]: < 100 nM | IC50 [2, 6]: < 100 nM
SMILES: CNC(=O)c1ccccc1Nc1nc(Nc2ccc3c(c2)N(C)CCCO3)ncc1Cl [Example 1708, 2-[5-Chloro-2-(9-methyl-6,7,8,9-tetrahydro-5-oxa-9-aza-benzocyclohepten-2-ylamino)-pyrimidin-4-ylamino]-N-methyl-benzamide]

IC50 [1, 5]: 100 to 1000 nM | IC50 [2, 6]: 1000 to 10000 nM
SMILES: C#CCNC(=O)c1cc(F)cc(F)c1Nc1nc(Nc2ccc3c(c2)N(C(=O)N2CCCC2)CCCC3(C)C)ncc1Cl [Example 1622, 2-{5-Chloro-2-[5,5-dimethyl-1-(pyrrolidine-1-carbonyl)-2,3,4,5-tetrahydro-1H-benzo[b]azepin-8-ylamino]-pyrimidin-4-ylamino}-3,5-difluoro-N-prop-2-ynyl-benzamide]

IC50 [1, 5]: 1000 to 10000 nM | IC50 [2, 6]: < 100 nM
SMILES: CCN1CCCOc2cc(Nc3ncc(Cl)c(Nc4ccc(N5CCOCC5)cc4OC)n3)ccc21 [Example 1694, 5-Chloro-N*2*-(9-ethyl-6,7,8,9-tetrahydro-5-oxa-9-aza-benzocyclohepten-3-yl)-N*4*-(2-methoxy-4-morpholin-4-yl-phenyl)-pyrimidine-2,4-diamine]

IC50 [1, 5]: 100 to 1000 nM | IC50 [2, 6]: < 100 nM
SMILES: COCCN1CCCC(C)(C)c2ccc(Nc3ncc(Cl)c(N[C@H]4[C@@H](C(N)=O)[C@@H]5C=C[C@H]4C5)n3)cc21 [Example 1600, (1S,2S,3R,4R)-3-{5-Chloro-2-[1-(2-methoxy-ethyl)-5,5-dimethyl-2,3,4,5-tetrahydro-1H-benzo[b]azepin-8-ylamino]-pyrimidin-4-ylamino}-bicyclo[2.2.1]hept-5-ene-2-carboxylic acid amide]

IC50 [1, 5]: 1000 to 10000 nM | IC50 [2, 6]: < 100 nM
SMILES: COc1cc2c(cc1Nc1ncc(Cl)c(Nc3ccccc3S(=O)(=O)N3CCCC3)n1)CCN(CCO)CC2 [Example 1543, 2-(7-{5-Chloro-4-[2-(pyrrolidine-1-sulfonyl)-phenylamino]-pyrimidin-2-ylamino}-8-methoxy-1,2,4,5-tetrahydro-3-benzazepin-3-yl)-ethanol]

IC50 [1, 5]: < 100 nM | IC50 [2, 6]: < 100 nM
SMILES: CN1Cc2cc(Nc3ncc(Cl)c(Nc4ccccc4OCC#N)n3)ccc2CCC1=O [Example 1810, {2-[5-Chloro-2-(2-methyl-3-oxo-2,3,4,5-tetrahydro-1H-benzo[c]azepin-8-ylamino)-pyrimidin-4-ylamino]-phenoxy}-acetonitrile]

IC50 [1, 5]: 1000 to 10000 nM | IC50 [2, 6]: < 100 nM
SMILES: COc1cc2c(cc1Nc1ncc(Cl)c(Nc3ccccc3S(=O)(=O)N(C)C)n1)CCN(CC(=O)N1CCN(C)CC1)CC2 [Example 1538, 2-(5-Chloro-2-{8-methoxy-3-[2-(4-methyl-piperazin-1-yl)-2-oxo-ethyl]-2,3,4,5-tetrahydro-1H-3-benzazepin-7-ylamino}-pyrimidin-4-ylamino)-N,N-dimethyl-benzenesulfonamide]

IC50 [1, 3]: > 10000 nM | IC50 [2, 4]: < 100 nM
SMILES: COCCOC(=O)c1ccccc1Nc1nc(Nc2cc3c(cc2OC)CCC(NCCO)CC3)ncc1Cl (centres unmarked) [Example 1093, 2-{5-Chloro-2-[7-(2-hydroxy-ethylamino)-3-methoxy-6,7,8,9-tetrahydro-5H-benzocyclohepten-2-ylamino]-pyrimidin-4-ylamino}-benzoic acid 2-methoxy-ethyl ester]

IC50 [1, 3]: 1000 to 10000 nM | IC50 [2, 4]: < 100 nM
SMILES: CNC(=O)CN1CCc2cc(Nc3ncc(Cl)c(Nc4ccccc4C(=O)NC)n3)c(OC)cc2CC1 [Example 1114, 2-[5-Chloro-2-(8-methoxy-3-methylcarbamoylmethyl-2,3,4,5-tetrahydro-1H-benzo[d]azepin-7-ylamino)-pyrimidin-4-ylamino]-N-methyl-benzamide]

IC50 [1, 3]: > 10000 nM | IC50 [2, 4]: 100 to 1000 nM
SMILES: CCN1C(=O)CCCc2cc(Nc3ncc(Cl)c(Nc4ccccc4OC)n3)c(OC)cc21 [Example 1318, 7-[5-Chloro-4-(2-methoxy-phenylamino)-pyrimidin-2-ylamino]-1-ethyl-8-methoxy-1,3,4,5-tetrahydro-benzo[b]azepin-2-one]
